Measurements: patent US20250236608A1, “EGFR INHIBITORS” (Blueprint Medicines Corporation, priority 2022, published 2025)
One block for each compound: values may come before it.

Tests used:
[1] = molecular target: EGFR L858R (Homo sapiens (Human), UniProt P00533, L858R); experiment: Biochemical EGFR inhibition assay, EGFR L858R; settings: Caliper mobility shift; 1.0 mM ATP or ATP Km; read-out: Enz EGFR_L858R IC50
[2] = molecular target: EGFR (d746-750) (Homo sapiens (Human), UniProt P00533, DEL746-750); experiment: Biochemical EGFR inhibition assay, EGFR (d746-750); settings: Caliper mobility shift; 1.0 mM ATP or ATP Km; read-out: Enz EGFR_Exon19-del746-750 IC50
[3] = molecular target: pEGFR (Tyr1068) in PC-9 cells (Ex19Del) (Homo sapiens (Human), UniProt P00533, DEL746-750); experiment: PC-9 pEGFR AlphaLISA assay; assay type: cell-based; settings: 4 hours incubation, p-EGFR (Tyr1068) AlphaLISA, read-out: Ext pEGFR_PC-9 Ex19Del IC50
Procedure, shortened: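 Compounds are added in ten 4-fold dilutions to adherent cells grown in serum-containing (10% FBS) phenol-free DMEM and left for 4 hours at 37° C. Phosphorylated receptor in lysates is quantified by bead-based AlphaLISA. IC50 values derive from inhibition plotted against log dose.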

Chain of pEGFR (Tyr1068) in PC-9 cells (Ex19Del) (P00533 other isoform, or with tags, fused parts or gaps del 746-750): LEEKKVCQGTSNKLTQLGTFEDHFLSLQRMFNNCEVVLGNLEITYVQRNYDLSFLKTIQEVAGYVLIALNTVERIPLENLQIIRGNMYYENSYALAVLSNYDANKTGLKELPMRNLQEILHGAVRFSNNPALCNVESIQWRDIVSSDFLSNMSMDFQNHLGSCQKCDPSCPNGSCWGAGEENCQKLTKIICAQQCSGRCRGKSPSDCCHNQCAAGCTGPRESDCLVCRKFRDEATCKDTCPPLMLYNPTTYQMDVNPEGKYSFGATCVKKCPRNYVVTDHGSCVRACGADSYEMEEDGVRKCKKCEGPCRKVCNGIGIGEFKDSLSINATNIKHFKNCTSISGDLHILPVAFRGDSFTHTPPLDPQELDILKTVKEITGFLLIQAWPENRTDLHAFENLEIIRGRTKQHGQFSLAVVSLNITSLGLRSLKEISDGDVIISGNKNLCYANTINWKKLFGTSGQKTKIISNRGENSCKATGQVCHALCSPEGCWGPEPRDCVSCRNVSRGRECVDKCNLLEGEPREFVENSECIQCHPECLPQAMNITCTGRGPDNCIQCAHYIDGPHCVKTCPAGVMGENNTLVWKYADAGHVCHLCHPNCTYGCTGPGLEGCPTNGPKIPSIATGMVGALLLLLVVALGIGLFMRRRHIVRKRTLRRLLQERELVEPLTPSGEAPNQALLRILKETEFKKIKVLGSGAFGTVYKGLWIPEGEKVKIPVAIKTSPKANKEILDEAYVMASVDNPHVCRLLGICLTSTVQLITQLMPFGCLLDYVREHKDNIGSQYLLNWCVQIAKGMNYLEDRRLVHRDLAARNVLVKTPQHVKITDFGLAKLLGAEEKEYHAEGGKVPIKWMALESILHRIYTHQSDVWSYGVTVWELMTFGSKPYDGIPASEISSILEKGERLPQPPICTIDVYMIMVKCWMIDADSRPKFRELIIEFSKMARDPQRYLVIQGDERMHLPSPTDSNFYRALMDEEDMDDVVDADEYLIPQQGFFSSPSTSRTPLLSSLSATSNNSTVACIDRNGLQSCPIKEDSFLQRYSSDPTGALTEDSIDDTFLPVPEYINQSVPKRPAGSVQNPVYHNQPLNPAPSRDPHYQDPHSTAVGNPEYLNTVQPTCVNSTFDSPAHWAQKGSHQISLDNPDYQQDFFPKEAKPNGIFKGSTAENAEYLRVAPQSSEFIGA
Chain of EGFR (d746-750) (P00533 other isoform, or with tags, fused parts or gaps del 1-694/del 746-750 limits assumed): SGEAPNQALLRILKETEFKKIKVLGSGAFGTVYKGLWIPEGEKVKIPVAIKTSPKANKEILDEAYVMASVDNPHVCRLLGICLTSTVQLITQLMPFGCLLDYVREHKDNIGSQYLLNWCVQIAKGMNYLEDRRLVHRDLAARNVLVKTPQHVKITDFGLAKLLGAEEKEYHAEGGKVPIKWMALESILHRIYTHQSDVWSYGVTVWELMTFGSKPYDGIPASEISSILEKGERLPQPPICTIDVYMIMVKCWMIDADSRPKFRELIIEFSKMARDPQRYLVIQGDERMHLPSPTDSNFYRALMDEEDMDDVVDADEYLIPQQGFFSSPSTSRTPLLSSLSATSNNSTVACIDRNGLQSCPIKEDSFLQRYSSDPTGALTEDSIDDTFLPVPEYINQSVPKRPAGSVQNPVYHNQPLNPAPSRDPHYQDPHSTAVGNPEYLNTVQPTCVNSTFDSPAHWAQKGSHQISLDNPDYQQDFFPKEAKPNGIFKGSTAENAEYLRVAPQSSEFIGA
Chain of EGFR L858R (P00533 25-1210 L858R): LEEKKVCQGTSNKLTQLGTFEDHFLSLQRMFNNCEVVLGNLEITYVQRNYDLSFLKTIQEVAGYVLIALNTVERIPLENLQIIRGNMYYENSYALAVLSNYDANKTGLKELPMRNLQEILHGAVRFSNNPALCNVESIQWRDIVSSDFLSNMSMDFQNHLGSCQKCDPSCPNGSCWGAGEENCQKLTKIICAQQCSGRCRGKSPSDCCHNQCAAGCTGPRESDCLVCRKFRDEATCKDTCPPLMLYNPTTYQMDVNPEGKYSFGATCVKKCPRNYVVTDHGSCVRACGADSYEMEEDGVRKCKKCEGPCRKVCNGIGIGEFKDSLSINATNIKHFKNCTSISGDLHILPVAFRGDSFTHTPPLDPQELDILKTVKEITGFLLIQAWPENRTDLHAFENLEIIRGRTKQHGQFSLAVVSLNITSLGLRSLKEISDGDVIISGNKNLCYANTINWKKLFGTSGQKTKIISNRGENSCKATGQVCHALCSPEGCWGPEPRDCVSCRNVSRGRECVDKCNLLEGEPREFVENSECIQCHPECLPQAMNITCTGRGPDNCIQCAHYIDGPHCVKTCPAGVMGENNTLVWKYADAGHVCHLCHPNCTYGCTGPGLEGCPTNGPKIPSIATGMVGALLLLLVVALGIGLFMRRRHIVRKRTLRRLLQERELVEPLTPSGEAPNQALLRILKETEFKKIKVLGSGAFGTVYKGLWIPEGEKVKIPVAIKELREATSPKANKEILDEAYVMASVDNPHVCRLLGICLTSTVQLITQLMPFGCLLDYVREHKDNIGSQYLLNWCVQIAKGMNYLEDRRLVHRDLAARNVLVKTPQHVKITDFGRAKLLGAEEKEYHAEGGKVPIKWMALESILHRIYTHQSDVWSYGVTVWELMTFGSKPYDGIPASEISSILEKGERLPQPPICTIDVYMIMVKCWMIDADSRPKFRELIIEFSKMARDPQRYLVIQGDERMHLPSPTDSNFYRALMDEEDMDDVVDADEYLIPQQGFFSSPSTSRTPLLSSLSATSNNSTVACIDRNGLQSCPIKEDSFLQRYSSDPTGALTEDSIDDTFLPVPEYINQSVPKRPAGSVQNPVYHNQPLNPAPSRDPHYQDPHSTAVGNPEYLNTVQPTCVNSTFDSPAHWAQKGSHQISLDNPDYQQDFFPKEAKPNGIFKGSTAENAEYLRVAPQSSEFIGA

SMILES: [2H]C([2H])([2H])n1cc(-c2ncnc3cc(OC)c(NC(=O)C45CC(N(C)C)(C4)C5)nc23)c(-c2ccccc2)n1 [Example 494]
IC50 [1]: 4.4 nM
IC50 [2]: 1.2 nM
IC50 [3]: 3.6 nM

SMILES: COc1cc2ncnc(-c3cn(C)nc3-c3ccccc3)c2cc1OC(=O)N1[C@@H](C)CN(C)C[C@@H]1C [Example 79, 7-methoxy-4-(1-methyl-3-phenyl-1H-pyrazol-4-yl)quinazolin-6-yl (2S,6S)-2,4,6-trimethylpiperazine-1-carboxylate]
IC50 [1]: 6.5 nM
IC50 [2]: 3.1 nM
IC50 [3]: 9.6 nM

SMILES: COc1cc2ncnc(-c3cn(C)nc3-c3ccccc3)c2cc1-c1cccc2c1nc(CO)n2C [Example 148, (4-(7-methoxy-4-(1-methyl-3-phenyl-1H-pyrazol-4-yl)quinazolin-6-yl)-1-methyl-1H-benzo[d]imidazol-2-yl)methanol]
IC50 [1]: 7 nM
IC50 [2]: 3 nM
IC50 [3]: 8.3 nM

SMILES: CCOc1cc2ncnc(-c3cn(C)nc3-c3ccccc3)c2cc1OC1CCN(C)CC1 [Example 9, 7-ethoxy-4-(1-methyl-3-phenyl-1H-pyrazol-4-yl)-6-((1-methylpiperidin-4-yl)oxy)quinazoline]
IC50 [1]: 13.1 nM
IC50 [2]: 6.4 nM
IC50 [3]: 9.8 nM

SMILES: CCC(=O)Nc1cc2c(-c3cnn(CC(F)F)c3-c3ccccc3)ncnc2cc1OC [Example 500]
IC50 [1]: 2.9 nM
IC50 [2]: 7 nM
IC50 [3]: 55.7 nM

SMILES: COc1cc2ncnc(-c3cn(C)nc3-c3ccccc3)c2cc1NC(=O)c1ccc(C2CC2)nc1 [Example 229, 6-cyclopropyl-N-(7-methoxy-4-(1-methyl-3-phenyl-1H-pyrazol-4-yl)quinazolin-6-yl) nicotinamide]
IC50 [1]: 3.5 nM
IC50 [2]: 1.7 nM
IC50 [3]: 3.7 nM

SMILES: COc1cc2ncnc(-c3cn(C)nc3-c3ccccc3)c2nc1NC(=O)C1(C(F)(F)F)CCOCC1 [Example 383, N-(7-methoxy-4-(1-methyl-3-phenyl-1H-pyrazol-4-yl)pyrido[3,2-d]pyrimidin-6-yl)-4-(trifluoromethyl)tetrahydro-2H-pyran-4-carboxamide]
IC50 [1]: 4.5 nM
IC50 [2]: 1.7 nM
IC50 [3]: 5.7 nM

SMILES: COc1cc2ncnc(-c3cn(C)nc3-c3ccccc3)c2cc1NC(=O)C(C)F (stereo not drawn) [Example 221, 2-fluoro-N-(7-methoxy-4-(1-methyl-3-phenyl-1H-pyrazol-4-yl)quinazolin-6-yl)propanamide]
IC50 [1]: 1.8 nM
IC50 [2]: 1 nM
IC50 [3]: 2.3 nM

SMILES: COc1cc2ncnc(-c3cn(C)nc3-c3ccccc3)c2cc1NC(=O)[C@@]1(C)CCCO1 (single isomer, unassigned) [Example 259, (R)—N-(7-methoxy-4-(1-methyl-3-phenyl-1H-pyrazol-4-yl)quinazolin-6-yl)-2-methyltetrahydrofuran-2-carboxamide or (S)—N-(7-methoxy-4-(1-methyl-3-phenyl-1H-pyrazol-4-yl)quinazolin-6-yl)-2-methyltetrahydrofuran-2-carboxamide]
IC50 [1]: 2.6 nM
IC50 [2]: 1.1 nM
IC50 [3]: 4.2 nM

SMILES: COc1cc2ncnc(-c3cn(C)nc3-c3ccccc3)c2nc1NC(=O)[C@@]12CN(C)C[C@@H]1C2(F)F (single isomer, unassigned) [Example 417, (1S,5R)-6,6-difluoro-N-(7-methoxy-4-(1-methyl-3-phenyl-1H-pyrazol-4-yl)pyrido[3,2-d]pyrimidin-6-yl)-3-methyl-3-azabicyclo[3.1.0]hexane-1-carboxamide or (1R,5S)-6,6-difluoro-N-(7-methoxy-4-(1-methyl-3-phenyl-1H-pyrazol-4-yl)pyrido[3,2-d]pyrimidin-6-yl)-3-methyl-3-azabicyclo[3.1.0]hexane-1-carboxamide]
IC50 [1]: 1.5 nM
IC50 [2]: 0.8 nM
IC50 [3]: 0.9 nM

SMILES: CCn1cc(-c2ncnc3cc(OC)c(NC(=O)[C@]45C[C@H]4CN(C)C5)nc23)c(-c2ccc(F)cc2)n1 (single isomer, unassigned) [Example 399, (1R,5R)—N-(4-(1-ethyl-3-(4-fluorophenyl)-1H-pyrazol-4-yl)-7-methoxypyrido[3,2-d]pyrimidin-6-yl)-3-methyl-3-azabicyclo[3.1.0]hexane-1-carboxamide or (1S,5S)—N-(4-(1-ethyl-3-(4-fluorophenyl)-1H-pyrazol-4-yl)-7-methoxypyrido[3,2-d]pyrimidin-6-yl)-3-methyl-3-azabicyclo[3.1.0]hexane-1-carboxamide]
IC50 [1]: 1.2 nM
IC50 [2]: 0.9 nM
IC50 [3]: 1.3 nM

SMILES: COc1cc2ncnc(-c3cn(C)nc3-c3ccccc3)c2cc1OC(=O)N1CCOCC1(C)C [Example 81, 7-methoxy-4-(1-methyl-3-phenyl-1H-pyrazol-4-yl)quinazolin-6-yl 3,3-dimethylmorpholine-4-carboxylate]
IC50 [1]: 6.1 nM
IC50 [2]: 2.2 nM
IC50 [3]: 5.2 nM

SMILES: COc1cc2ncnc(-c3cn(CC(F)F)nc3-c3ccc(F)cc3)c2cc1C1(O)CC1 [Example 489]
IC50 [1]: 6.9 nM
IC50 [2]: 3.9 nM
IC50 [3]: 13.8 nM

SMILES: COc1cc2ncnc(-c3cn(C)nc3-c3ccccc3)c2cc1NC(=O)[C@@H]1CCN(C)C1 [Example 210, (R)-N-(7-methoxy-4-(1-methyl-3-phenyl-1H-pyrazol-4-yl)quinazolin-6-yl)-1-methylpyrrolidine-3-carboxamide]
IC50 [1]: 1.1 nM
IC50 [2]: 0.6 nM
IC50 [3]: 1.7 nM

SMILES: CCOc1cc2ncnc(-c3cn(C)nc3-c3ccccc3)c2cc1N1CCOCC1 [Example 163, 4-(7-ethoxy-4-(1-methyl-3-phenyl-1H-pyrazol-4-yl)quinazolin-6-yl)morpholine]
IC50 [1]: 3.6 nM
IC50 [2]: 1.4 nM
IC50 [3]: 5.5 nM

SMILES: COCc1cc2c(-c3cn(C)nc3-c3ccccc3)ncnc2cc1OC [Example 120, 7-methoxy-6-(methoxymethyl)-4-(1-methyl-3-phenyl-1H-pyrazol-4-yl)quinazoline]
IC50 [1]: 2.9 nM
IC50 [2]: 0.8 nM
IC50 [3]: 7.3 nM

SMILES: COc1cc2ncnc(-c3cn(C)nc3-c3ccccc3)c2cc1NC(=O)c1cnn2c1CCCC2 [Example 226, N-(7-methoxy-4-(1-methyl-3-phenyl-1H-pyrazol-4-yl)quinazolin-6-yl)-4,5,6,7-tetrahydropyrazolo[1,5-a]pyridine-3-carboxamide]
IC50 [1]: 1.6 nM
IC50 [2]: 1 nM
IC50 [3]: 1.4 nM

The remaining lines, values ahead:

IC50 [1]: 2 nM
IC50 [2]: 0.8 nM
IC50 [3]: 1.3 nM
SMILES: COc1cc2ncnc(-c3cn(C)nc3-c3ccccc3F)c2cc1NC(=O)C1(CN(C)C)CC1 [Example 188, 1-((dimethylamino)methyl)-N-(4-(3-(2-fluorophenyl)-1-methyl-1H-pyrazol-4-yl)-7-methoxyquinazolin-6-yl)cyclopropane-1-carboxamide]

IC50 [1]: 1.4 nM
IC50 [2]: 0.9 nM
IC50 [3]: 0.8 nM
SMILES: CCn1cc(-c2ncnc3cc(OC)c(NC(=O)C4(C(F)(F)F)CC4)nc23)c(-c2ccccc2)n1 [Example 371, N-(4-(1-ethyl-3-phenyl-1H-pyrazol-4-yl)-7-methoxypyrido[3,2-d]pyrimidin-6-yl)-1-(trifluoromethyl)cyclopropane-1-carboxamide]

IC50 [1]: 1.7 nM
IC50 [2]: 0.9 nM
IC50 [3]: 1.5 nM
SMILES: COc1cc2ncnc(-c3cn(C)nc3-c3ccccc3)c2cc1NC(=O)c1cnc(C)c(F)c1 [Example 196, 5-fluoro-N-(7-methoxy-4-(1-methyl-3-phenyl-1H-pyrazol-4-yl)quinazolin-6-yl)-6-methylnicotinamide]

IC50 [1]: 1.7 nM
IC50 [2]: 1.2 nM
IC50 [3]: 4.8 nM
SMILES: COc1cc2ncnc(-c3cn(C)nc3-c3ccccc3)c2cc1O[C@@H](C)C1COC1 [Example 22, (S)-7-methoxy-4-(1-methyl-3-phenyl-1H-pyrazol-4-yl)-6-(1-(oxetan-3-yl)ethoxy)quinazoline]

IC50 [1]: 4.5 nM
IC50 [2]: 2.5 nM
IC50 [3]: 6.8 nM
SMILES: CC(C)Oc1cc2ncnc(-c3cn(C)nc3-c3ccccc3)c2cc1OC(=O)N1CCOC[C@H]1C [Example 71, 7-isopropoxy-4-(1-methyl-3-phenyl-1H-pyrazol-4-yl)quinazolin-6-yl (R)-3-methylmorpholine-4-carboxylate]

IC50 [1]: 2.5 nM
IC50 [2]: 0.7 nM
IC50 [3]: 0.8 nM
SMILES: CCOc1cc2ncnc(-c3cn(C)nc3-c3ccccc3)c2nc1NC(=O)[C@]12COC[C@H]1C2 (single isomer, unassigned) [Example 379, (1S,5S)—N-(7-ethoxy-4-(1-methyl-3-phenyl-1H-pyrazol-4-yl)pyrido[3,2-d]pyrimidin-6-yl)-3-oxabicyclo[3.1.0]hexane-1-carboxamide or (1R,5R)—N-(7-ethoxy-4-(1-methyl-3-phenyl-1H-pyrazol-4-yl)pyrido[3,2-d]pyrimidin-6-yl)-3-oxabicyclo[3.1.0]hexane-1-carboxamide]

IC50 [1]: 6.1 nM
IC50 [2]: 1.6 nM
IC50 [3]: 2.5 nM
SMILES: COc1cc2ncnc(-c3cn(C)nc3-c3ccccc3)c2nc1OC(C)c1cn(C)nn1 (stereo not drawn) [Example 34, 7-methoxy-6-(1-(1-methyl-1H-1,2,3-triazol-4-yl)ethoxy)-4-(1-methyl-3-phenyl-1H-pyrazol-4-yl)pyrido[3,2-d]pyrimidine]

IC50 [1]: 6.1 nM
IC50 [2]: 2.1 nM
IC50 [3]: 13.7 nM
SMILES: COc1cc2ncnc(-c3cn(C)nc3-c3ccccc3)c2cc1OC(=O)N1[C@@H](C)COC[C@@H]1C [Example 64, 7-methoxy-4-(1-methyl-3-phenyl-1H-pyrazol-4-yl)quinazolin-6-yl (3S,5S)-3,5-dimethylmorpholine-4-carboxylate]
